Measured values as given in PMC12751141, “Disrupting α-Synuclein–ClpP interaction restores mitochondrial function and attenuates neuropathology in Parkinson’s disease models” (Molecular Neurodegeneration, 2025).

How the values were obtained:
[1] = test system: αSyn-PFF-inoculated primary cortical neurons; experiment: Immunofluorescence / western blot in αSyn-PFF-inoculated primary cortical neurons; assay type: cell-based, mouse; details: 1 µM daily
Method: (§1) Primary cortical neurons were isolated from normal E18 mouse cortex (sex undetermined) and cultured using complete culturing kit (cat#: KTC57ECX, TransnetYX Tissue). Briefly, 100,000 cells were seeded on poly-D-lysine coated glass coverslips (PDL15mm, TransnetYX Tissue) and cultured in NbActiv1 medium (NB1, TransnetYX Tissue). Neurons were treated with sonicated human α-Syn-PFF (SPR-322, StressMarq Biosciences) starting on post-seeding Day 5 till Day 14. Starting from post-seeding Day 9, TAT or CS2 peptide was added daily at 1µM. Neurons were fixed on Day 14 and subjected for experiments.
Cells were grown on coverslips, fixed with 4% paraformaldehyde for 20 min at room temperature, permeabilized with 0.1% Triton X-100 in PBS, and blocked with 2% normal goat serum. The cells were incubated with the indicated primary antibodies overnight at 4℃. After washing with PBS, the cells were incubated with Alexa Fluor 488/568 or 405/568 secondary antibody (1:500; Thermo Fisher Scientific) for 2 h at room temperature. The nuclei were counterstained with DAPI (1:10000; Sigma-Aldrich). Images of the staining were acquired using a Fluoview FV3000 confocal microscope (Olympus).
Fig. 5 CS2 treatment mitigates αSyn PFF induced neurotoxicity. (A) Representative images of ClpP, αSyn (Syn204; recognize human αSyn only) and NeuN staining in αSyn PFF-inoculated mouse primary cortical neurons that were pre-treated with TAT or CS2 peptide (scale bar = 30 μm). Quantification of ClpP and αSyn co-localization (n = 12–13 neurons/group, two-tailed Student’s t test, data are mean ± SEM). (B-C) Representative images of ClpP, αSyn (Syn204) and NeuN staining in αSyn PFF-inoculated mouse primary cortical neurons that were pre-treated with TAT or CS2 peptide (scale bar = 30 μm). Neurons were fixed in 4% PFA/4% sucrose/1%Triton-X100 to extract the soluble factions before immunostaining. […] (D-E) Representative images of β-tubulin (Tuj1) and pS129-αSyn (pS129) staining in αSyn PFF-inoculated mouse primary cortical neurons that were pre-treated with TAT or CS2 peptide (scale bar = 30 μm). […] (F-H) Representative images of PSD95, Synapsin1 (SYN1) and pS129 staining in αSyn PFF-inoculated mouse primary cortical neurons that were pre-treated with TAT or CS2 peptide (scale bar = 30 μm).
(A) Experimental schematic of TAT or CS2 peptide treatment in mouse primary cortical neurons inoculated with human αSyn PFF: Primary cortical neurons were isolated from E18 mouse cortex (see methods) and plated on coverslips (Day -5); neurons were treated with human αSyn PFF on Day 0 at 50 ng/ml; On Day 4, TAT or CS2 (1µM) was added daily till Day 9.
(B) Total protein lysates were harvested from primary neurons inoculated with αSyn-PFF after treatment with TAT or PBS, and subjected for western blot. Shown are the representative blots.

[2] = test system: αSyn-PFF-inoculated primary cortical neurons; experiment: Mitochondrial function (Mito-SOX, TMRM, ATP) in αSyn-PFF-inoculated primary cortical neurons; assay type: cell-based, mouse; details: 1 µM daily
Method: as §1
Cells cultured on coverslips or 24-well plates were washed with DPBS and then incubated with 5 µM Mito-SOX™ Red (Invitrogen, M36008), a mitochondrial superoxide indicator, for 10 min at 37 °C. For cells cultured on coverslips, the images were visualized by microscope, and quantification of images was then carried out using NIH ImageJ software. At least 100 cells per group were counted in the analysis.
Cells cultured on coverslips or 24-well plates were washed with DPBS and then incubated with 0.25 µM Tetramethylrhodamine, methyl ester (TMRM) (Invitrogen, T668), for 20 min at 37 °C. For cells cultured on coverslips, the images were visualized by microscope, and quantification of images was then carried out using NIH Fiji ImageJ software. At least 100 cells per group were counted in the analysis.
(§2) Cells were seeded in 24-well plates, followed by the indicated treatment. The ATP level in each well was determined using the ATP assay kit according to the manufacturer’s procedures (Cayman Chemical, 700410).

[3] = test system: SH-SY5Y cells; experiment: Cellular ATP in SH-SY5Y cells; assay type: cell-based
Method: as §2

Structure (SMILES): CC(C)[C@H](NC(=O)CNC(=O)CNC(=O)CCCCCNC(=O)[C@H](CCCNC(=N)N)NC(=O)[C@H](CCCNC(=N)N)NC(=O)[C@H](CCCNC(=N)N)NC(=O)[C@H](CCC(N)=O)NC(=O)[C@H](CCCNC(=N)N)NC(=O)[C@H](CCCNC(=N)N)NC(=O)[C@H](CCCCN)NC(=O)[C@H](CCCCN)NC(=O)[C@H](CCCNC(=N)N)NC(=O)CNC(=O)[C@@H](N)Cc1ccc(O)cc1)C(=O)N[C@H](C(=O)N[C@H](C(=O)N[C@@H](C)C(=O)O)[C@@H](C)O)C(C)C [CS2, TAT-C6-GGVVTA]
- ClpP expression, PFF neurons ([1]; five days): rescued the expression of ClpP
- ClpP / αSyn co-localization ([1]; five days, n = 12–13 neurons/group): reduced this colocalization
- insoluble αSyn, PFF neurons ([1]; detergent-insoluble, n = 20-30 neurons per group): significantly reduced the insoluble ClpP and αSyn signal
- insoluble ClpP ([1]; detergent-insoluble, n > 30 neurons/group): significantly reduced the insoluble ClpP and αSyn signal
- pS129-αSyn level, PFF neurons ([1]; n = 3–6): markedly reduced the level of pS129-αSyn
- Synapsin1/PSD95 colocalization ([1]; n > 30 areas): substantially restored Synapsin1/PSD95 colocalization
- ATP content, PFF neurons ([2]; n = 4): rescued mitochondrial membrane potential and ATP content
- mitochondrial ROS, PFF neurons ([2]; Mito-SOX, n = 90-100 neurons per group): reduced mitochondrial ROS
- mitochondrial membrane potential, PFF neurons ([2]; TMRM, n = 90-100 neurons per group): rescued mitochondrial membrane potential
- ATP content, αSyn-expressing cells ([3]; SH-SY5Y expressing WT- or A53T-αSyn, n = 6): rescued upon CS2 treatment
- ATP production, healthy cells ([3]; healthy SH-SY5Y, n = 4): did not affect cell viability nor ATP production
